Results on 21 molecules are retold here after publication PMC11950244, “Discovery of novel dual-target inhibitors of LSD1/EGFR for non-small cell lung cancer therapy” (Acta Pharmacologica Sinica, 2025).

Read-outs that look alike come from different tables or passages of the source.

Assay [1] concerns the target T1, LSD1 (Homo sapiens, UniProt O60341). The experiment in a line: LSD1 enzymatic assay.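 On Bottom: percent inhibition of LSD1 activity from the fitted dose-response curve.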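 On Top: percent inhibition of LSD1 activity from the fitted dose-response curve.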 The class given is biochemical. The conditions noted are these: for Bottom / Top / Hillslope: concentration-response curve fit parameter. As to the method: A total of 12 compounds were purchased from J&K Scientific Ltd. (Shanghai, China). The biological experiments of inhibiting the enzymatic activity of LSD1 by 12 test compounds were conducted by Pharmaron (Beijing, China). Each compound was serially diluted 4-fold in 100% dimethyl sulfoxide (DMSO) from a starting DMSO stock concentration of 20 mM to obtain 10 concentration doses. Seclidemstat was used as a positive control. The diluted compounds were added to the LSD1 assay buffer (50 mM Tris-HCl, pH 7.5, and 1% DMSO) and incubated with LSD1 for 30 min at room temperature. The peptide substrate was then added to initiate the reaction, and the mixture was further incubated for 60 min at room temperature. The reaction was stopped by adding the stop solution, followed by the addition of the detection solution containing protein-A-Eu, streptavidin-d2, and anti-Histone H3 (dimethyl K9) antibody. […] The IC50 was calculated using a nonlinear regression (dose response – variable slope) by fitting the inhibition ratio and log of compound concentrations using Graphpad 8.0.

The target of assay [2] is double-mutant EGFR (T790M/L858R) (Homo sapiens, UniProt P00533, L858R/T790M). The experiment in a line: EGFR kinase assay (HTRF), double mutant. The class given is biochemical. How it is done: (§1) The biological experiments of inhibiting the activity of EGFR by test compounds were also performed by Pharmaron (Beijing). To conduct the kinase assay, the following steps were followed:
(§2) % Inhibition is calculated as follow: %Inhibition=1−SINGALcmpd−SINGALave−pc/SINGALave−vc−SINGALave−pc×100
(§3) SINGALcmpd = singal for compound being tested
(§4) SINGALave_pc = singal for positive controls
(§5) SINGALave_vc = singal for vehicle controls
For orientation: In TR-FRET formats the signal depends on donor and acceptor labels being close together.

Assay [3] concerns the target triple-mutant EGFR (L858R/T790M/C797S) (Homo sapiens, UniProt P00533, C797S/L858R/T790M). The experiment in a line: EGFR kinase assay (HTRF), triple mutant. The class given is biochemical. The conditions noted are these: for IC50: read-out: EGFR kinase assay IC50 (μM) L858R/T790M/C797S. As to the method: as §1, §2, §3, §4, §5
Assay [4] has as its system BaF3 cells stably expressing EGFR (L858R/T790M/C797S). As to the kind of experiment: BaF3 cell assay (CTG luminescence). The conditions noted are these: Mus musculus, BaF3, read-out: BaF3 cell assay IC50 (μM) L858R/T790M/C797S.
Protocol: The following steps were followed for cell culture and compound treatment:
% Inhibition is calculated as follow: %Inhibition=1−LUMcmpd−LUMave−pc/LUMave−vc−LUMave−pc×100
LUMcmpd = LUM for compound being tested
LUMave_pc = Average LUM for positive controls (10 μM Control Compound)
LUMave_vc = Average LUM for vehicle controls (0.1% DMSO)
Assay [5] concerns BaF3 cells harboring EGFR L858R/T790M/C797S mutant. On the set-up: method as in PMID 30429956. The conditions noted are these: read-out: IC50 BaF3 cells harboring EGFR L858R/T790M/C797S, previous studies; cited from earlier work.
Assay [6] concerns the target T1, LSD1. The experiment in a line: SPR binding assay (Biacore T200). As to the method:
Surface plasmon resonance (SPR) was employed to evaluate direct binding between compounds and LSD1 using Biacore T200 optical biosensor (Biacore Life Sciences, GE Healthcare). LSD1 was covalently attached to CM5 sensor chip via amine coupling. Binding experiments were conducted at 15 °C in a buffer containing 10 mM HEPES (pH 7.4), 150 mM NaCl, 1% DMSO, and 0.05% Tween, with a flow rate of 30 μL/min. Compounds were serially diluted in the same buffer and injected over the prepared surfaces for 15–25 s at increasing concentrations. Sensorgrams were corrected by subtracting signals from both an untreated reference channel and blank injections. Data analysis was performed using Biacore T200 evaluation software (GE Healthcare).

The mark [7] stands for this setting: read-out: IC50 (μM) against LSD1.

triple-mutant EGFR (L858R/T790M/C797S), sequence (P00533 25-1210 T790M/C797S/L858R): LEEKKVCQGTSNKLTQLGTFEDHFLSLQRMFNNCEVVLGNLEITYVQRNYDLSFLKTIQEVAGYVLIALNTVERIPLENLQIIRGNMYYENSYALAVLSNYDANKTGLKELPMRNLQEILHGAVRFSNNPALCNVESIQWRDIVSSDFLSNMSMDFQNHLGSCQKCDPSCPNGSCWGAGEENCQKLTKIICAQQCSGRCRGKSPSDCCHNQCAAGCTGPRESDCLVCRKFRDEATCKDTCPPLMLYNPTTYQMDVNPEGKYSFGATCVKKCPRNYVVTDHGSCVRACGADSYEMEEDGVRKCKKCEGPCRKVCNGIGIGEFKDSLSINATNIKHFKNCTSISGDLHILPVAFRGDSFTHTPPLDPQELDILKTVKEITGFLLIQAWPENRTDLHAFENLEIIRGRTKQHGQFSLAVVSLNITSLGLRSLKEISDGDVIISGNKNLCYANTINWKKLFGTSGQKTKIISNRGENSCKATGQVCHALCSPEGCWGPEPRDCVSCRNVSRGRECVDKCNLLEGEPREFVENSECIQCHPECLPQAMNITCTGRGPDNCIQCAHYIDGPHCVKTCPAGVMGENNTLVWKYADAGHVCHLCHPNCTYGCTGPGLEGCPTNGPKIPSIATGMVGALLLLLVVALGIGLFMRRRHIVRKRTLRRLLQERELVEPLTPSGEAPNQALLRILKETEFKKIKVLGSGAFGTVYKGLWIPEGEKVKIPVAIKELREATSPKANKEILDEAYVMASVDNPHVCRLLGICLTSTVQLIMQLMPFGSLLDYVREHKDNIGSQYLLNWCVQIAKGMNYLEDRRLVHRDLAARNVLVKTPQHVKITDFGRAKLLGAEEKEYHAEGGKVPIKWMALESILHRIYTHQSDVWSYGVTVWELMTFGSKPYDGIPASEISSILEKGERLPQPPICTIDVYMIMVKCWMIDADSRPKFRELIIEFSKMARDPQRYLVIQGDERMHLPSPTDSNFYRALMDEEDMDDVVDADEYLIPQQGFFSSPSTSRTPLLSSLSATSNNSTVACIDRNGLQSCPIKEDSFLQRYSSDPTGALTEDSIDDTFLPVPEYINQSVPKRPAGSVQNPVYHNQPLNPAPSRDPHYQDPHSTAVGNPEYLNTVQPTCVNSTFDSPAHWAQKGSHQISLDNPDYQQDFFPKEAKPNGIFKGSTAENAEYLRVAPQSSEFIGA
double-mutant EGFR (T790M/L858R), sequence (P00533 25-1210 T790M/L858R): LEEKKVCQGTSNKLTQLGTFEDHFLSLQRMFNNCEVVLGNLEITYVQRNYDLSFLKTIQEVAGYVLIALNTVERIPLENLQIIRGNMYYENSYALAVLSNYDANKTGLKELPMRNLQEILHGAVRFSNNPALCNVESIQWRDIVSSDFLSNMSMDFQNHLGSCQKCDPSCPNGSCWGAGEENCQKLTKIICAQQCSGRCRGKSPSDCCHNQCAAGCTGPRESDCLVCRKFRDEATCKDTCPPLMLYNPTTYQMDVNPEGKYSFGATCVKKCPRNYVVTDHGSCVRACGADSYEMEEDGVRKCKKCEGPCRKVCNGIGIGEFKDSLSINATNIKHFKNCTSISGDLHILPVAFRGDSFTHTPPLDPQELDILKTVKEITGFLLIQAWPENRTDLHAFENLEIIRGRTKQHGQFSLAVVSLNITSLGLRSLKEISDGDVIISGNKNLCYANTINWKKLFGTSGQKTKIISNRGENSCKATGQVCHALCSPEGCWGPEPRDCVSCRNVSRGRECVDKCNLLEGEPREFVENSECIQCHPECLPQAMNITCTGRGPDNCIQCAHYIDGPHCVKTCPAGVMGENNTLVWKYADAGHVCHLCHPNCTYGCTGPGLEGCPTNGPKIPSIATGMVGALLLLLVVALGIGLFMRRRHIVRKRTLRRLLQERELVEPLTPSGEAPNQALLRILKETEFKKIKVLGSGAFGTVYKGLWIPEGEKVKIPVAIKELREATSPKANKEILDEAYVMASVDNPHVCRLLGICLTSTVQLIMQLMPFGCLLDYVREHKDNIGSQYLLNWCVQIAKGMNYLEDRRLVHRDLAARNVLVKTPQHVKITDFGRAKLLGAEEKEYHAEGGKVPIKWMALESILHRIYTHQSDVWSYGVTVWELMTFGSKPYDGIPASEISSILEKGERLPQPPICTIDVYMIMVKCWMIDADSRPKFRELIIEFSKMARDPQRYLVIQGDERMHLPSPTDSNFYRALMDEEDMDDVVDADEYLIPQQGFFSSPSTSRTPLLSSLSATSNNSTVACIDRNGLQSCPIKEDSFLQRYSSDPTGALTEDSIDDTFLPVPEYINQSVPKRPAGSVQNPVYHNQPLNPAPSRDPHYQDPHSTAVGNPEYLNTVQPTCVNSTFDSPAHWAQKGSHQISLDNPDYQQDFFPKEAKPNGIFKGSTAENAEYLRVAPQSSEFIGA

As for `Cc1ccc(-c2noc(-c3ccc(=O)n(CC(=O)Nc4ccc(C)cc4Br)c3)n2)cc1` [D-11], the IC50 at LSD1 [1] (setting [7]) was more than 100 µM.
Still for that read-out and setting: in the case of `Cc1ccc(-c2noc(-c3ccc(=O)n(CC(=O)Nc4cccc(Br)c4)c3)n2)cc1` [D-8] it was more than 100 µM.
Take `Cc1ccc(-c2noc(-c3ccc(=O)n(CC(=O)Nc4ccccc4C(F)(F)F)c3)n2)cc1` [D-10]: on LSD1 [1], the Relative potency % is reported as 0.4%, the Bottom amounted to 2.43 and the Top is on record as 42.68. On LSD1 [1] (setting [7]), the IC50 was 34.3 µM.
For `COc1cc(Cl)c(C)cc1NC(=O)Cn1cc(-c2nc(-c3ccc(C)cc3)no2)ccc1=O` [D-12], the IC50 at LSD1 [1] (setting [7]) is more than 100 µM.
As for `COC(=O)c1sccc1NC(=O)Cn1cc(-c2nc(-c3ccc(C)cc3)no2)ccc1=O` [D-15], the IC50 on LSD1 [1] (setting [7]) was more than 100 µM.
On LSD1 [1], `Cc1ccc(-c2noc(-c3ccc(=O)n(CC(=O)NCc4ccccc4)c3)n2)cc1` [D-14] showed a Relative potency % of 0.5%, a Bottom of −1.64, a Hillslope of 2.53 and a Top of 48.09. Also, the IC50 at LSD1 [1] (setting [7]) is 28.3 µM. Besides, the IC50 in assay [2] was 73.9 µM. Moreover, in assay [3], the IC50 was 86.7 µM. Besides, in assay [4], the IC50 was determined as 2.45 µM.
On LSD1 [1], `CCCc1noc(-c2ccc(=O)n(CC(=O)Nc3ccccc3Br)c2)n1` [D-17] came in with a Relative potency % of 0.8%, a Bottom of −0.07 and a Top of 64.23. In addition, the IC50 on LSD1 [1] (setting [7]) was determined as 19.8 µM. The molecule further showed an IC50 in assay [2] of more than 100 µM. Besides, the IC50 in assay [3] was more than 100 µM.
For `CCN(CC)c1ccc(/C=C2/C(=O)NC(=O)N(c3ccc(Cl)cc3)C2=O)c(OC)c1` [D-2], the IC50 on LSD1 [1] was more than 100 µM.
`CCOc1ccccc1NC(=O)Cn1cc(-c2nc(-c3ccc(C)cc3)no2)ccc1=O` [D-6]: the IC50 on LSD1 [1] (setting [7]) was more than 100 µM.
Consider `Cc1ccc(-c2noc(-c3ccc(=O)n(CC(=O)Nc4ccc(Br)cc4)c3)n2)cc1` [D-9], for which, on LSD1 [1], the Relative potency % stood at 0.5%, the Bottom came to 3.84 and the Top is given as 52.57. For the same molecule, the IC50 on LSD1 [1] (setting [7]) amounted to 26.6 µM.
On LSD1 [1], `Cc1ccc(-c2noc(-c3cccn(CC(=O)Nc4ccccc4Br)c3=O)n2)cc1` [D-4] registered a Relative potency % of 0.5%, a Bottom of 5.79, a Hillslope of 4.05 and a Top of 60.26. The IC50 on LSD1 [1] (setting [7]) is 29.2 µM.
Turning to `COC(=O)c1ccccc1NC(=O)Cn1cc(-c2nc(-c3ccc(C)cc3)no2)ccc1=O` [D-7], the IC50 at LSD1 [1] (setting [7]) was more than 100 µM.
For `COc1cc(N2CCC(N3CCN(C)CC3)CC2)ccc1Nc1ncc(Cl)c(Nc2ccccc2P(C)(C)=O)n1` [Brigatinib, reference compound], the IC50 is 0.42 µM in assay [5] and 0.4 µM in assay [4].
In the case of `C/C(=N\NC(=O)c1cccc(S(=O)(=O)N2CCN(C)CC2)c1)c1cc(Cl)ccc1O` [Seclidemstat, seclidemstat, reference compound], the results for the IC50 (against LSD1 [1]; in assay [4]) were 0.231 µM and 0.98 µM, respectively. Also, the “Inhibition of LSD1 enzymatic activity” value on LSD1 [1] (at 10 μM) was “complete inhibition”. For the same molecule, in assay [2], the “Inhibitory activity against EGFR double mutant (in words)” value was “does not exhibit inhibitory activity”. Moreover, in assay [3], the “Inhibitory activity against EGFR triple mutant (in words)” value is “does not exhibit inhibitory activity”.
`CC(C)c1noc(-c2ccc(=O)n(CC(=O)Nc3ccccc3Br)c2)n1` [D-18]: the IC50 on LSD1 [1] (setting [7]) is more than 100 µM.
On LSD1 [1], `Cc1ccc(-c2noc(-c3ccc(=O)n(CC(=O)Nc4ccccc4Br)c3)n2)cc1` [L-6] registered a Relative potency % of 2.5%, a Bottom of −11.46, a Hillslope of 1.86 and a Top of 55.47. For the same molecule, at LSD1 [1] (setting [7]), the IC50 was determined as 9.26 µM. At LSD1 [6], the “Binding to LSD1 by SPR (in words)” value is “specific and reversible binding”. For the same molecule, the Kd at LSD1 [6] (SPR, 15 °C, read-out: dissociation constant (KD)) came to 26.4 µM. For the same molecule, the IC50 in assay [2] was 26.5 µM. The IC50 in assay [3] amounted to 28.5 µM. For the same molecule, the IC50 in assay [4] was found to be 8.99 µM.
Molecule `CCN(CC)c1ccc(/C=C2/C(=O)NC(=O)N(c3ccc(Cl)cc3)C2=O)cc1` [D-1] returned an IC50 against LSD1 [1] of more than 100 µM.
On to `Cc1noc(-c2ccc(=O)n(CC(=O)Nc3ccccc3Br)c2)n1` [D-16], for which, at LSD1 [1], the Relative potency % came to 0.5%, the Bottom was −2.33 and the Top was 51.97. Further, the IC50 at LSD1 [1] (setting [7]) was determined as 28.7 µM. Also, in assay [3], the IC50 was found to be 59.6 µM. For the same molecule, the IC50 in assay [4] came out at 2.72 µM.
Turning to `COc1ccccc1NC(=O)Cn1cc(-c2nc(-c3ccc(C)cc3)no2)ccc1=O` [D-5], at LSD1 [1], the Relative potency % stood at 0.7%, the Bottom stood at 7.19, the Hillslope was found to be 2.04 and the Top was determined as 54.06. Besides, the IC50 at LSD1 [1] (setting [7]) was 21.5 µM.
Turning to `CCCCNC(=O)Cn1cc(-c2nc(-c3ccc(C)cc3)no2)ccc1=O` [D-13], the IC50 on LSD1 [1] (setting [7]) was more than 100 µM.
On to `CCN(CC)c1ccc(/C=C2/C(=O)NC(=O)N(c3ccc(C(F)(F)F)cc3)C2=O)c(O)c1` [D-3], for which, at LSD1 [1], the IC50 came out at 35.7 µM, the Relative potency % is 0.4%, the Bottom is 8.10 and the Top was 45.78.

What is called Kd is the concentration at which binding is half-saturated.
